SH = thiol (–SH) group at the N-terminus
Assays:
[1] = Self-assembly of SH-KLAKLAKRGD (TEM, size); assay type: physicochemical; conditions: dissolved in water (1 mM and 10 mM), stirred 24 hours
Description: SH-KLAKLAKRGD (1 mM and 10 mM) was dissolved in water and stirred for 24 hours. A drop of SH-KLAKLAKRGD aqueous solution was placed on a formvar/carbon coated copper grid and allowed to evaporate at ambient conditions. The sample was stained with 2 wt % uranyl acetate solution and evaporated for 1 minute, and the excess solution was removed with filter paper. The specimen was observed using a JEM-1400 TEM operating at 120 kV.

[2] = test system: senescent cells; test: Cytotoxicity of SH-KLAKLAKRGD, MTT cell viability; assay type: cell-based; conditions: different concentrations, 24 hours
Description: (§1) Specifically, the cell viability of IMR90 and senescent cells against SH-KLAKLAKRGD was evaluated by identifying the reduction of MTT to insoluble formazan. Cells were seeded at a density of 5×10^3 cells per well in a 96-well plate and cultured overnight, followed by treatment with different concentrations of SH-KLAKLAKRGD in DMEM medium containing 10% FBS and cultured for 24 hours. Then, the cells were cultured with MTT, and then the crystallized formazan was quantified by measuring the absorbance thereof at 595 nm by using an ELISA plate reader. Results were expressed as percent viability=[(A550 (treated cells)−background value)/(A550 (untreated cells)−background value)]×100.

[3] = test system: senescent cells; test: SA-b-galactosidase staining of senescent cells; assay type: cell-based; conditions: 30 μM SP-101 versus untreated control, optical microscope
Description: Specifically, SA-b-galactosidase staining was used. Cells that were not treated with anything were used as a control, and those treated with 30 μM of SP-101 were used as an experimental group. SA-gal staining was performed using a kit (Biovision, K320-250) according to the manufacturer's instructions. Senescent cells were identified as blue-stained cells under an optical microscope.

[4] = test system: choroidal neovascularization; test: Laser-induced CNV model, fluorescein angiography; assay type: in vivo, mice; conditions: two weeks after laser, compared to Eylea control group
Description: Specifically, the mice were anesthetized by intraperitoneal injection of ketamine hydrochloride and xylazine hydrochloride. By using a diode laser with a wavelength of 810 nm, eight photocoagulation spots, each having the size of 75 μm, the intensity of 250 mW, and the time of 50 ms, were made in concentric circles among the main retinal vessels around the optic nerve. The rupture of the Bruck's membrane was confirmed by identifying that cavitation bubbles had been formed in the choroid. Immediately after laser irradiation, the experimental groups treated with 10 μM, 50 μM, and 100 μM of SP-101, and phosphate buffered saline and Eylea, which were used as control groups, were injected into the vitreous cavity. Two weeks after laser irradiation, fluorescein angiography was performed thereon using a confocal scanning laser fundus camera. After fluorescein-dextran was rapidly injected intravenously, images thereof were taken at the beginning (2 min) and late (10 min).

[5] = test system: senescent cells; test: Cytotoxicity of SP-101, MTT cell viability; assay type: cell-based; conditions: 5 μM to 30 μM SP-101, 24 hours
Description: as §1, with “against SP-101” for “against SH-KLAKLAKRGD”, “of 3-(4,5-dimethylthiazol-2-yl)-2,5-diphenyltetrazolium bromide (MTT)” for “of MTT”, “of SP-101” for “of SH-KLAKLAKRGD”

[6] = Macromolecular formation of SP-101 by ROS (TEM/SEM); assay type: physicochemical; conditions: 1 mM and 10 mM in water, stirred 24 hours
Description: Specifically, 1 mM SP-101 and 10 mM SP-101 were each dissolved in water and stirred for 24 hours. A drop of an aqueous solution of SP-101 was placed on a formvar/carbon-coated copper grid and evaporated under atmospheric conditions. The sample was stained with a 2 wt % uranyl acetate solution, evaporated for 1 minute, and then the excess solution was removed therefrom by using a filter paper.

| Substance | size of the polymerized SH-KLAKLAKRGD [1] | macromolecule formation (TEM image) ([1]; TEM) | cell viability in senescent cells versus IMR90 normal cell [2] | reduction of senescent cells (blue-stained cells) [3] | volume of choroidal neovascularization ([4]; 10 μM SP-101 injected into the vitreous cavity) | volume of choroidal neovascularization ([4]; 100 μM SP-101 injected into the vitreous cavity) | killing of senescent cells versus normal cells IMR90 [5] | macromolecule formation by oxidation [6] |
| --- | --- | --- | --- | --- | --- | --- | --- | --- |
| SH-KLAKLAKRGD: mitochondria-targeting compound prepared by solid phase peptide synthesis; NH2-KLAKLAKRGD reacted with disulfide 4, structure in FIG. 10 ({SH}-KLAKLAKRGD-NH2; also: N-terminal thiol group from reaction with disulfide 4) | 350±100 nm | showed a macromolecule in which peptides were polymerized | cell viability in senescent cells was lower than that in IMR90 | – | – | – | – | – |
| (3-((3-(3,5-dimercaptobenzamido)propyl)dimethylammonium)propyl)triphenylphosphonium [SP-101] | – | – | – | senescent cells were reduced | decreased by about twice compared to the Eylea control group | decreased by about twice compared to the Eylea control group | more senescent cells were killed than normal cells | oxidized to form a macromolecule |

— US20220153783A1, “MITOCHONDRIA-TARGETING COMPOUND AND COMPOSITION COMPRISING SAME FOR TREATING OR PREVENTING AGING-RELATED DISEASES” (FUSION BIOTECHNOLOGY CO., LTD., priority 2019, published 2022)
